Structures are written as SMILES.

For series [1], the system named is middle cerebral artery occlusion rats. To be noted: one hour prior to MCAO; early stages of ischemia; cited from earlier work.
Series [2] concerns middle cerebral artery occlusion (MCAO) rats. In words: Infarct volume after MCAO (TTC staining), Example 1. To be noted: for % Infarct volume (to the contralateral hemisphere): 48 h post MCAO, n=12, mean ± S.E.M., DMSO group 35.1 ± 4.5; for decrease of percent infarct volume compared with DMSO treated control group: 4.0 mg/kg i.p. The format is in vivo, Male Wistar rats.
The test system is the same in series [3]. In words: Neurological deficit score after MCAO (Zea Longa scale 0-4), Example 1. The conditions noted are these: for Neurologic Score: scale 0-4, mean ± S.E.M., DMSO group 1.8 ± 0.1.
Description: (§1) Briefly, the right common carotid artery, external carotid artery (ECA) and internal carotid artery (ICA) were exposed. A length of 4-0 monofilament nylon suture (18.5-19.5 mm), determined by the animal weight, with its tip rounded by heating near a flame, was advanced from the ECA into the lumen of the ICA until it blocked the origin of the MCA. Two hours after MCAO, animals were reanaesthetized with halothane and reperfusion was performed by withdrawal of the suture until the tip cleared the lumen of the ICA.
(§2) Four randomly assigned populations of animals were tested. Group 1 (n=12): water soluble PROG (PROG with balance of 2-hydroxypropyl-β-cyclodextrin) (Sigma Chemical Co., St Louis, Mo.) dissolved in saline (4.0 mg/ml) was injected intraperitoneally (4.0 mg/kg) 30 minutes before MCAO. The remaining injections (all 4.0 mg/kg) were given at 6 and 24 hours after MCAO, respectively. Group 2 (n =12): the experimental protocol was identical to that in Group 1, except that PROG (4-pregnene-3,20-dione) (Sigma Chemical Co., St Louis, Mo.) dissolved in dimethyl sulfoxide (DMSO; Sigma Chemical Co., St Louis, Mo.) (8.0 mg/ml), instead of water soluble PROG, was administered. Group 3 (n=12): the experimental protocol was identical to that in group 2, except that the initial injection was delayed to the onset of reperfusion (2 hours after MCAO). Group 4 (n=12): the experimental protocol was the same as that in Group 2, except that the same volume of DMSO without PROG (0.5 ml/kg) as in Group 2 was administered.
(§3) All animals were weighed before surgery for MCAO and at 24 and 48 hours after MCAO. Neurological abnormalities were also evaluated 24 and 48 hours after MCAO using the scale (0-4) described by Z. Longa et al., Stroke, 20, 84 (1989). Rats were held gently by the tail, suspended one meter above the floor, and observed for forelimb flexion. […] Rats that consistently flexed the left forelimb (contralateral to the injured hemisphere) accompanying flexion of the wrist toward left without any other abnormality were graded 1. Rats that were allowed to move about freely and circled toward the paretic side consistently were graded 2. Rats that fell down to the left losing the ability to walk were graded 3.
(§4) For parametric variables, a one way ANOVA was applied to determine the statistical significance of differences among groups. If a significant difference was detected, then two sample t-tests with Bonferroni correction were performed to evaluate differences between control and PROG treated groups. Paired t-tests were performed on physiological parameters before and after administration of PROG and DMSO within each group. Values presented in this study are mean ±S.E.M. A probability value less than 0.05 was considered significant.
For a further series, the system named is cerebral contusion. The conditions noted are these: one hour after the cerebral trauma; cited from earlier work.
Series [4] relates to central nervous system (CNS). To be noted: cited from earlier work.
Series [5] deals with GABA receptor. To be noted: physiological levels of PROG, in vivo; cited from earlier work.
Series [6] can be described thus: Physiological variables (blood pH, pCO2, pO2, blood pressure) before and after injection, rat MCAO. The series is classed as in vivo, Male Wistar rats. To be noted: for Mean Blood Pressure / pCO2 / pH / pO2: n=12, mean ± S.E.M.
A short description of series [7]: Body weight loss after MCAO, Example 1. The conditions noted are these: for Body weight loss: mean ± S.E.M.
Description: as §1, §2, §3, §4
The conditions of series [8]: circulating PROG; cited from earlier work.
A further series can be described thus: in vivo. The conditions noted are these: rat, ip, 4 mg/kg, plasma level of PROG.
A further series has as its system global cerebral ischemia. The conditions noted are these: 7-day pretreatment; cited from earlier work.
In series [9] the test system is GABA receptor. The conditions noted are these: neurons; cited from earlier work.
For the next series, the system named is stroke patients. To be noted: cited from earlier work.
Setting [10] is: both groups of regular PROG treated animals (pre- and post-MCAO), 4.0 mg/kg i.p.
Where [11] appears, read: 20 min post-injection, 4.0 mg/kg i.p. 30 min before MCAO.
Setting [12] is: 20 min post-injection, 4.0 mg/kg i.p. 2 h after MCAO.
The mark [13] stands for this setting: pre-injection, group 4.0 mg/kg i.p. 30 min before MCAO.
[14] abbreviates: pre-injection, group 4.0 mg/kg i.p. 2 h after MCAO.

For `CC(=O)[C@H]1CC[C@H]2[C@@H]3CCC4=CC(=O)CC[C@]4(C)[C@H]3CC[C@]12C` [PROG, 4-pregnene-3,20-dione], the brain edema result in [1] was “reduce brain edema in the early stages of ischemia”. Where the note is “4.0 mg/kg i.p., DMSO dissolved, n=2”, the “absorption by the intraperitoneal route” value is given as “absorbed rapidly”. Where the note is “rat, in vivo, ip, 4 mg/kg, 4 h”, the “plasma level of PROG” value is 70.7 ng/mL. The “% Infarct volume (to the contralateral hemisphere)” value is 21.5 ± 2.9% in series [2] (4.0 mg/kg i.p. 30 min before, 6 and 24 h after MCAO); 23.1 ± 2.3% in series [2] (4.0 mg/kg i.p. first dose 2 h after MCAO). Moreover, the “decrease of percent infarct volume compared with DMSO treated control group” value in series [2] (delayed treated (2 h after MCAO), P=0.027) was 34%; in series [2] (first dose 30 min before MCAO, DMSO dissolved PROG P=0.018, water soluble PROG P=0.290 (not significant)) it was 39%. Further, the “effectiveness 2 hours after onset of MCAO versus prior to onset” value in series [2] (2 h after onset vs prior to onset of MCAO) is reported as “as effective”. Also, the “Neurologic Score” value is given as 1.4 ± 0.1 score in [3] (24 h after MCAO, 4.0 mg/kg i.p. first dose 30 min before MCAO); 1.4 ± 0.1 score in series [3] (24 h after MCAO, 4.0 mg/kg i.p. first dose 2 h after MCAO); 1.4 ± 0.1 score in [3] (48 h after MCAO, 4.0 mg/kg i.p. first dose 30 min before MCAO); 1.4 ± 0.1 score in series [3] (48 h after MCAO, 4.0 mg/kg i.p. first dose 2 h after MCAO). The “neurological function compared with DMSO group” value in [3] (setting [10]) is “improved neurological function”. Besides, the “edema resulting from cerebral contusion” value with cerebral contusion was “reduced edema”. Further, the CNS actions result in series [4] (PROG and its related metabolites) is “CNS depressants and exert anesthetic, anticonvulsant and anxiolytic actions”. Moreover, in [4] (in vivo), the anticonvulsant activity result is “possesses anticonvulsant activity”. Also, the “GABA-mediated inhibition of neuronal activity” value with GABA receptor [5] is on record as “enhance GABA-mediated inhibition of neuronal activity”. Besides, the “Mean Blood Pressure” value worked out at 95 ± 2 mm Hg in series [6] (setting [11]), 103 ± 3 mm Hg in series [6] (setting [12]), 94 ± 3 mm Hg in [6] (setting [13]) and 107 ± 3 mm Hg in series [6] (setting [14]). The pCO2 in series [6] (setting [11]) was found to be 39 ± 2 mm Hg; in [6] (setting [12]), 36 ± 1 mm Hg; in series [6] (setting [13]), 41 ± 1 mm Hg; in series [6] (setting [14]), 36 ± 1 mm Hg. The pH in series [6] (setting [11]) amounted to 7.43 ± 0.02; in series [6] (setting [12]), 7.44 ± 0.01; in series [6] (setting [13]), 7.44 ± 0.01; in series [6] (setting [14]) it was 7.46 ± 0. For the same molecule, the pO2 in [6] (setting [11]) is on record as 135 ± 5 mm Hg; in series [6] (setting [12]), 134 ± 3 mm Hg; in [6] (setting [13]), 134 ± 4 mm Hg; in [6] (setting [14]) it was 133 ± 4 mm Hg. Moreover, the “physiological variables before and after injection” value in series [6] (before vs 20 min after initial treatment, 4.0 mg/kg i.p.) is listed as “no significant difference”. Moreover, the Body weight loss amounted to 31.1 ± 2.6 grams in [7] (24 h after MCAO, 4.0 mg/kg i.p. first dose 30 min before MCAO, DMSO group 40.4 ± 3.4); 33.8 ± 1.9 grams in series [7] (24 h after MCAO, 4.0 mg/kg i.p. first dose 2 h after MCAO, DMSO group 40.4 ± 3.4); 8.8 ± 2.2 grams in series [7] (48 h after MCAO, 4.0 mg/kg i.p. first dose 30 min before MCAO, DMSO group 19.7 ± 2.9); 10.0 ± 3.1 grams in series [7] (48 h after MCAO, 4.0 mg/kg i.p. first dose 2 h after MCAO, DMSO group 19.7 ± 2.9). In addition, the “body weight loss compared with DMSO group” value in series [7] (setting [10]) was “reduced body weight loss”. Further, in series [8], the “passage through the blood-brain barrier” value is “easily passes through the blood-brain barrier”. Further, the concentration at 4 h in the series “in vivo” came out at 41.9 ng/mL. Also, in the series with global cerebral ischemia, the “neuroprotective activity following global cerebral ischemia” value is given as “exhibited neuroprotective activity following global cerebral ischemia only after a 7-day pretreatment regimen”. For the same molecule, the “GABA-evoked Cl currents” value in the series with GABA receptor [9] was “potentiating GABA-evoked Cl currents”.

`C[C@@H]1C[C@H]2[C@@H]3CCC4=CC(=O)C=C[C@]4(C)[C@@]3(F)[C@@H](O)C[C@]2(C)[C@@]1(O)C(=O)CO` [dexamethasone]: the “outcome, steroid vs non-steroid treated patients” value in the series on stroke patients was “no significant difference in outcome”.

For `C[C@H]1C[C@@H]2[C@H]([C@@H](O)C[C@@]3(C)[C@H]2CC[C@]3(O)C(=O)CO)[C@@]2(C)C=CC(=O)C=C12` [methylprednisolone], the “outcome, steroid vs non-steroid treated patients” value in the series on stroke patients was “no significant difference in outcome”.

The values are drawn from patent publication US6245757A, “Use of progestins to treat ischemic event” (priority 1998, dated 2001).
